Data taken from BindingDB's records for patent US20250197403 (Achillion Pharmaceuticals, 2025).

These molecules were tested against Complement factor D (Homo sapiens, UniProt P00746) (assay: Human Factor D Assay).
Experimental: Human Factor D (purified from human serum, Complement Technology, Inc.) at 80 nM final concentration is incubated with test compound at various concentrations for 5 min at room temperature in 50 mM Tris, 1M NaCl, pH 7.5. A synthetic substrate Z-L-Lys-SBzl and DTNB (Ellman's reagent) are added to final concentrations of 100 μM each. Absorbance at 405 nm (A405) is recorded at 30 second intervals for 30 min using a microplate spectrophotometer. IC50 values are calculated by nonlinear regression of complement Factor D reaction rates as a function of test compound concentration.

Complement factor D, sequence (P00746 whole entry): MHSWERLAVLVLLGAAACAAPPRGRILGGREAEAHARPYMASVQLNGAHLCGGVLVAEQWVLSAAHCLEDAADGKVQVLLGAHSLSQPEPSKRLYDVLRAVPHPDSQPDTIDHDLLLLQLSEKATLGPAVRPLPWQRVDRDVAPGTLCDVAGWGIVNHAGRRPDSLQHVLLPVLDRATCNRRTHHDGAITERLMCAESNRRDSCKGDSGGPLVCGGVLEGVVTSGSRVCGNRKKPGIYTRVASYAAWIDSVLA

SMILES | IC50 [nM]
CC(=O)c1cn(CC(=O)N2C[C@H]3C[C@H]3[C@H]2C(=O)Nc2nc(C(F)(F)F)ccc2C)c2c(C)cc(-c3cnc4cc(C)nn4c3)cc12 [US20250197403, Compound 1] | < 1000
CC(=O)c1cn(CC(=O)N2[C@H](C(=O)Nc3nc(Br)ccc3C3CC3)C[C@@]3(C)C[C@@H]23)c2c(C)cc(-c3cnc(C)nc3)cc12 [US20250197403, Compound 9] | < 1000
CC(=O)c1cn(CC(=O)N2[C@H](C(=O)Nc3cncc(C(F)(F)F)n3)C[C@@]3(C)C[C@@H]23)c2c(C)cc(-c3cnc4cc(C)nn4c3)cc12 [US20250197403, Compound 48] | < 1000
COCc1ccc(Br)nc1NC(=O)[C@@H]1C[C@@]2(C)C[C@H]2N1C(=O)Cn1cc(C(C)=O)c2cc(-c3ccc4nc(C)nn4c3)cc(C)c21 [US20250197403, Compound 62] | < 1000
CC(=O)c1cn(CC(=O)N2[C@H](C(=O)Nc3nc(C(F)(F)F)ccc3C)C[C@@]3(C)C[C@@H]23)c2c(C)cc(-c3cnc4sc(C)nc4c3)cc12 [US20250197403, Compound 70] | < 1000
CC(=O)c1cn(CC(=O)N2C[C@@](F)(CF)C[C@H]2C(=O)Nc2nc(C(F)(F)F)ccc2Cl)c2c(C)nc(-c3cnc4cc(C)nn4c3)cc12 [US20250197403, Compound 92] | < 1000
